Source: patent US20140154263A1, “Use of TAK1 Inhibitor to Achieve Glycemic Control in Mammals” (Connexios Life Sciences Pvt. Ltd., priority 2012, published 2014)

Assays:
JNK [1] = test: JNK phosphorylation under inflammatory conditions in adipocytes; type: cell-based; details: in response to inflammatory cytokine, FIG. 1
3T3 L1 cells = test: Insulin sensitivity in adipocytes (Western blot p-Akt Thr-308 / total Akt); type: cell-based; details: glucose and palmitate 48 hours, then 10 and 100 nM insulin 15 min, FIG. 2
Description: This was ascertained by treating 3T3 L1 cells with glucose and palmitate (GP) for 48 hours in the presence and absence of TAK-1 inhibitor. Cells were then stimulated with 10 and 100 nM insulin (I) for 15 min, following which they were taken up for Western blot analysis for p-Akt ([…]) and total Akt.

3T3F442A pre adipocytes = test: Adipogenesis (TG levels) under inflammatory cytokines; type: cell-based; details: differentiation with inflammatory cytokines, FIG. 3
Description: Experiments were performed in which inflammatory cytokines were added to 3T3F442A pre adipocytes (UD) and TG levels were estimated as a measure of adipogenesis. Differentiation was carried out in the presence and absence of TAK-1 inhibitor.

3T3F442A cells = test: Secreted adiponectin in adipocytes; type: cell-based; details: inflammation (inf) plus metabolic overload (pal), FIG. 4
Source text: Adiponectin is secreted by insulin sensitive mature adipocytes and positively modulates glucose and lipid metabolism in non adipose tissues such as liver, muscle etc. Increased adiponectin secretion is desirable and is correlated with whole body insulin sensitivity. Inflammation (inf) in the presence of metabolic overload (pal) caused a decrease in adiponectin secretion in 3T3F442A cells.

rat primary hepatocytes = test: Reactive oxygen species in rat primary hepatocytes; type: cell-based; details: glucose, palmitate and inflammatory cytokines, FIG. 8
Source text: Reactive oxygen species (ROS) are generated as metabolic byproducts, particularly as a byproduct of oxidative phosphorylation. Under normal conditions, the levels of ROS generated are low and tightly controlled, and can function as signaling intermediates.

JNK [2] = test: JNK activation in skeletal muscle cells; type: cell-based
Source text: (§1) Taken together, TAK-1 inhibition could lead to decreased JNK and NFkB signaling under metabolic overload and inflammation.

IkB = IkB level in skeletal muscle cells; type: cell-based; details: skeletal muscle cells under inflammatory conditions (Infl), FIG. 14
Source text: as §1

C2C12 myotubes = test: NO release from muscle cells; type: cell-based
Source text: (§2) Oxidative stress mediated by both ROS and RNS (NO) is known to impair mitochondrial function and induced insulin resistance in skeletal muscle (FIG. 17). Furthermore, it is also known that metabolic overload and inflammatory signal drives oxidative stress in skeletal muscles.

skeletal muscles = test: ROS levels in skeletal muscle cells; type: cell-based; details: different disease conditions, FIG. 17 C
Source text: as §2

muscle cells = test: Mitochondrial activity of muscle cells (reduction of MTT); type: cell-based; details: inflammation and oxidative stress conditions, FIG. 18
skeletal muscle cells = test: Mitochondrial biogenesis in skeletal muscle cells (mtND1, mitochondrial DNA copy number, MEF2C); type: cell-based; details: FIG. 18
rat islets = test: Glucose stimulated insulin secretion (GSIS) under inflammatory conditions; type: cell-based; details: inflammatory condition (Infl), FIG. 25
[3] = test system: insulin gene, PDX1, IL1b, glucokinase (GCK) and Glut2 (slc2a2); test: Gene expression in islet beta cells under inflammatory conditions; type: cell-based, rat
[4] = metabolic overload or inflammation

COc1cc(O)c2c(c1)/C=C/C[C@H](O)[C@H](O)C(=O)/C=C\C[C@H](C)OC2=O [(5Z)-7-Oxozeaenol]
activation of JNK (JNK [1]): decreased activation of JNK
insulin sensitivity (p-Akt Thr-308 / total Akt) (3T3 L1 cells): restored insulin sensitivity
TG levels as a measure of adipogenesis (3T3F442A pre adipocytes): partially restored
decrease in adiponectin secretion (3T3F442A cells): partially inhibited
intracellular ROS levels (rat primary hepatocytes): reduced ROS levels
activation of JNK (JNK [2]; in response to inflammatory cytokines, FIG. 13): decreased activation of JNK
activation of JNK (JNK [2]; in response to metabolic stress (palmitate overload)): reduce activation of JNK
IkB level (NFkB pathway) (IkB): increasing IkB level
inflammation induced NO release (C2C12 myotubes; C2C12 myotubes, FIG. 17 A): reduced inflammation induced NO release from C2C12 myotubes in a dose dependent manner
NO release (C2C12 myotubes; skeletal muscles, metabolic overload (high glucose and palmitate) and inflammatory conditions, FIG. 17 B): reduced NO release
ROS levels (skeletal muscles): reduced
mitochondrial activity (reduction of MTT) (muscle cells): increase mitochondrial activity
mitochondrial DNA copy number (skeletal muscle cells; [4]): increased mitochondrial DNA copy number
muscle enriched transcription factor (MEF2C) (skeletal muscle cells; [4]): increased
expression of mitochondrial genes such as mtND1 (skeletal muscle cells; skeletal muscle cells): up-regulate
glucose stimulated insulin secretion (GSIS) (rat islets): restored GSIS
inflammation induced IL1b expression ([3]; rat islet, FIG. 27): reduce inflammation induced IL1b expression
insulin gene and PDX1 expression ([3]; rat islets, under inflammation, FIG. 26): up-regulate
